# Experimental data reported in ChEMBL document CHEMBL1201862, “PubChem BioAssay data set” (2004).
#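 Assay format: 96-well plates, 48-hour exposure. GI50 marks 50% less growth.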 Active and inactive are the calls of the source. Rule as the data show it: active = GI50 up to about 1.1 µM and inactive = higher.
# Experiments:
# Experiment in all cases: inhibition of tumour cell growth, NCI panel, 48 h
# 786-0 = tested on: 786-0
# A498 = tested on: A498
# BT-549 = tested on: BT-549
# HCT-116 = tested on: HCT-116
# HOP-92 = tested on: HOP-92
# HT-29 = tested on: HT-29
# LOX IMVI = tested on: LOX IMVI
# M14 = tested on: M14
# MCF7 = tested on: MCF7
# Malme-3M = tested on: Malme-3M
# NCI-H226 = tested on: NCI-H226
# NCI-H23 = tested on: NCI-H23
# NCI-H460 = tested on: NCI-H460
# OVCAR-5 = tested on: OVCAR-5
# OVCAR-8 = tested on: OVCAR-8
# SF-539 = tested on: SF-539
# SK-OV-3 = tested on: SK-OV-3
# T47D = tested on: T47D
# UACC-257 = tested on: UACC-257
# UO-31 = tested on: UO-31
Compound,GI50 (786-0),GI50 (A498),GI50 (BT-549),GI50 (HCT-116),GI50 (HOP-92),GI50 (HT-29),GI50 (LOX IMVI),GI50 (M14),GI50 (MCF7),GI50 (Malme-3M),GI50 (NCI-H226),GI50 (NCI-H23),GI50 (NCI-H460),GI50 (OVCAR-5),GI50 (OVCAR-8),GI50 (SF-539),GI50 (SK-OV-3),GI50 (T47D),GI50 (UACC-257),GI50 (UO-31)
C(=N\Nc1ccc(-c2nc3ccccc3[nH]2)cc1)/c1c(-c2ccc(Cc3ccccc3)cc2)[nH]c2ccccc12,3.3 µM (inactive),11.4 µM (inactive),4.1 µM (inactive),5.01 µM (inactive),4.09 µM (inactive),3.67 µM (inactive),4.05 µM (inactive),4.48 µM (inactive),5.06 µM (inactive),2.49 µM (inactive),> 94.4 µM (inactive),8.79 µM (inactive),10.8 µM (inactive),26.1 µM (inactive),7.91 µM (inactive),5.74 µM (inactive),21.6 µM (inactive),7.18 µM (inactive),13.5 µM (inactive),10.8 µM (inactive)
Cc1cnc2[nH]c(-c3cccc(F)c3)cc(=O)c2c1,0.0384 µM (active),0.0579 µM (active),0.0757 µM (active),0.034 µM (active),1.4 µM (inactive),0.0308 µM (active),0.0668 µM (active),0.0342 µM (active),0.115 µM (active),0.0232 µM (active),0.0432 µM (active),0.151 µM (active),0.0411 µM (active),0.0738 µM (active),0.0582 µM (active),0.0326 µM (active),0.0368 µM (active),15.6 µM (inactive),> 100 µM (inactive),0.0724 µM (active)
O=C1/C(=C/c2ccc(O)cc2)CCc2ccccc21,16.7 µM (inactive),24.7 µM (inactive),20 µM (inactive),16.1 µM (inactive),36.2 µM (inactive),21.5 µM (inactive),20 µM (inactive),20.2 µM (inactive),6.38 µM (inactive),20.7 µM (inactive),24.5 µM (inactive),23.4 µM (inactive),29.3 µM (inactive),35.7 µM (inactive),27.2 µM (inactive),18 µM (inactive),> 55.6 µM (inactive),50.6 µM (inactive),17.3 µM (inactive),19.6 µM (inactive)
N=c1oc2ccccc2cc1C(=O)Nc1cccc2ccccc12,80 µM (inactive),> 100 µM (inactive),> 100 µM (inactive),> 100 µM (inactive),> 100 µM (inactive),> 100 µM (inactive),> 100 µM (inactive),> 100 µM (inactive),83.2 µM (inactive),56.6 µM (inactive),> 100 µM (inactive),> 100 µM (inactive),> 100 µM (inactive),> 100 µM (inactive),> 100 µM (inactive),> 100 µM (inactive),> 100 µM (inactive),> 100 µM (inactive),> 100 µM (inactive),–
Clc1ccccc1-c1nn2c(CCCCCCCCc3nnc4sc(-c5ccccc5Cl)nn34)nnc2s1,> 100 µM (inactive),> 100 µM (inactive),> 100 µM (inactive),> 100 µM (inactive),> 100 µM (inactive),52.1 µM (inactive),63.1 µM (inactive),> 100 µM (inactive),52.2 µM (inactive),> 100 µM (inactive),> 100 µM (inactive),> 100 µM (inactive),> 100 µM (inactive),> 100 µM (inactive),> 100 µM (inactive),> 100 µM (inactive),> 100 µM (inactive),> 100 µM (inactive),> 100 µM (inactive),> 100 µM (inactive)
CC(C)(C)OC(=O)C1=C(N)N(Cc2ccccc2)C2(C)C=CC(=O)C=C12 (centres undefined),3.83 µM (inactive),10.2 µM (inactive),1.95 µM (inactive),3.27 µM (inactive),2.16 µM (inactive),4.03 µM (inactive),2.34 µM (inactive),2.98 µM (inactive),2.5 µM (inactive),4.92 µM (inactive),12.9 µM (inactive),9.29 µM (inactive),15.5 µM (inactive),18.1 µM (inactive),2.45 µM (inactive),5.3 µM (inactive),19.5 µM (inactive),3.1 µM (inactive),5.24 µM (inactive),3.52 µM (inactive)
Clc1ccc(/C=N/c2ccc3c(c2)Cc2ccccc2-3)c(Cl)c1,> 100 µM (inactive),> 100 µM (inactive),> 100 µM (inactive),58.1 µM (inactive),> 100 µM (inactive),> 100 µM (inactive),92.9 µM (inactive),> 100 µM (inactive),> 100 µM (inactive),> 100 µM (inactive),> 100 µM (inactive),> 100 µM (inactive),> 100 µM (inactive),> 100 µM (inactive),> 100 µM (inactive),> 100 µM (inactive),> 100 µM (inactive),> 100 µM (inactive),> 100 µM (inactive),> 100 µM (inactive)
